From patent US6762200B2, “Oxa(thia)zolidine derivative and anti-inflammatory drug” (Nippon Soda Co. Ltd., priority 2000, dated 2004) come the findings set out here.

Each structure is given as a SMILES string. Read-outs that look alike come from different tables or passages of the source.

The test system of data set [1] is picryl chloride-induced contact dermatitis (ear swelling). Put plainly: Mouse delayed contact dermatitis induced by picryl chloride. Conditions: for Ear swelling after 24 hours Left (Not applied) (Mean ± S.E., mm): topical to right ear, non-treated left ear; for Ear swelling after 24 hours Right (Applied) (Mean ± S.E., mm): topical. How it is done:
This pharmacological test was carried out referring to the method of Asherson, G. L. & Ptak, W. (Immunology, 15: 405-416 (1968).) and the method of Jun Hiroi (Folia Pharmacology of Japan, 86: 233-239 (1985).). More specifically, hairs on the abdomen of an ICR-strain male mouse were removed using an electric clip and an electric shaver. Then, 0.1 mL of 7% ether solution of picryl chloride (Tokyo Kasei Kogyo Co., Ltd., C 0307) was applied onto the abdomen for sensitization. On the sixth day after the sensitization, 20 μL/ear of 1% olive oil solution of picryl chloride was topically applied to the anterior and posterior surfaces of both ears of the mouse to induce contact dermatitis (first induction). Before and 24 hours after the induction, the thicknesses of the particular parts on the both ears were measured three times, respectively, using a digimatic micrometer (Mitsutoyo Co., Ltd.) to work out the average values. Ear edema of the both ears was respectively determined by subtracting the average thickness of the each ear before the induction from that on 24 hours after the induction, so that a grouping was carried out to separate the appropriate individuals. On the fourth day after the first induction, the hairs on the abdomen were removed again, and 0.1 mL of 7% ethanol solution of picryl chloride was applied thereto for additional sensitization. The contact dermatitis for evaluating activity was induced by re-applying 20 μL/ear of 1% olive oil solution of picryl chloride to the anterior and posterior surfaces of both ears (second induction) on the seventh day after the additional sensitization (on the […] day after the first sensitization). The activity of each compound of the present invention was evaluated as the inhibition on the contact dermatitis as compared with that of the vehicle applied control. That is, the thicknesses of the particular portions of the both ears were measured respectively three times with a digimatic micrometer to work out the mean values before, 24 hours and 48 hours after the second induction. Ear swelling was determined by subtracting the ear thickness before the second induction from that on 24 hours and 48 hours after the second induction, respectively. Topical application activity was evaluated by applying 25 μL of the acetone solution of the compound of the present invention similarly to the anterior and posterior surfaces of the right ear one hour before and 16 hours after the second induction. As the positive control, 0.02 mg/20 μL of acetone solution of Dexamethasone (hereinafter referred to as DEX, Wako Pure Chemical Industries Ltd., 047-18863) was applied similarly as for the compound of the present invention. With respect to the inhibitory activity in topical application tests, the topical activity was determined by the inhibition of the applied right ear edema, and the translocation and distribution property was determined by the activity onto the swelling of non-treated left ear. Oral administration activity was evaluated by administrating 0.5% methyl cellulose suspension of the compound of the present invention forcibly and perorally to the mouse an hour before and 16 hours after the second induction. As the positive control, 20 mg/kg of Prednisolone (Sigma Chemical Co., P 6004) suspension was administrated similarly as for the compounds of the present invention.

Data set [2] concerns TPA-induced ear edema. The format is in vivo, ICR-strain male mouse. Particulars: topical, 6 hours after TPA. How it is done:
This test was carried out referring to the method of Carlson, R. P. et al. (Agents and Actions, 17(2): 197-204 (1985).) and the method of Chang, J. (European Journal of Pharmacology, 142: 197-205 (1987).). […] 6 hours later, the thickness of each ear at the particular part was respectively measured three times using a digimatic micrometer to calculate the mean value. Ear edema was determined by subtracting the mean thickness of the left ear as without treatment from that of the right ear as TPA-applied. […] As the positive control, 100 mg/kg of Hydrocortisone (Sigma Chemical Co., H 4001) suspension was applied to the mouse similarly as for the compound of the present invention.

Data set [3] addresses T1, IV-cPLA(2) (Homo sapiens, UniProt P47712).
T1 sequence (P47712 1-749): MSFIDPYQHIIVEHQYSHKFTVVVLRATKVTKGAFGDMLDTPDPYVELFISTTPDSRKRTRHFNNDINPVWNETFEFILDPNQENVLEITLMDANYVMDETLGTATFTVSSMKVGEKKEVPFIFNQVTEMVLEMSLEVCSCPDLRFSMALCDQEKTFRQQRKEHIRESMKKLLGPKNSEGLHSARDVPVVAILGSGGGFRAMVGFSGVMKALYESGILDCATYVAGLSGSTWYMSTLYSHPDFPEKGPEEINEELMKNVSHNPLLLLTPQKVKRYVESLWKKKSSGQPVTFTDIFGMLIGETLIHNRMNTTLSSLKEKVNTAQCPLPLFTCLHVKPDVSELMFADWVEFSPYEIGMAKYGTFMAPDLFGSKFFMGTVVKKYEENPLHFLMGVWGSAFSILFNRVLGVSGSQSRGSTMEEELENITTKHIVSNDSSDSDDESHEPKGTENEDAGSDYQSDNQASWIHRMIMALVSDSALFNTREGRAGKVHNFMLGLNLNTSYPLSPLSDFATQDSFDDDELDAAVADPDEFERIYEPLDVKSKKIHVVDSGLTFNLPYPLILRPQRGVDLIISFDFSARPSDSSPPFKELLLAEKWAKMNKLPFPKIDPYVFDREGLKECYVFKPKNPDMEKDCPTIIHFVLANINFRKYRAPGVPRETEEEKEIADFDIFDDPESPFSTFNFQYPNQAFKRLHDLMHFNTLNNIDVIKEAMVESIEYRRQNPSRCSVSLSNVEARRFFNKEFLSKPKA
Put plainly: PLA(2) activity, hydrolysis of bis-BODIPY FL C11-PC in activated U937 cells. The format is cell-based. How it is done: The PLA(2) activity was measured by quantitatively analyzing the fluorescent product of hydrolysis from 1,2-bis-(4,4-difluoro-5,7-dimethyl-4-bora-3a,4a-diaza-s-indecene-3-undecanoyl)-sn-glycero-3-phosphocholine (hereinafter referred to bis-BODIPY®FL C11—PC, Molecular Probes, Inc., B-7701) using activated U937 cells (human monoblastic lymphoma cell line) by inflammatory stimulus (Meshulam, T. et al., The journal of Biological Chemistry 267 (30): 21465-21470 (1992); and Solito, E. et al., British Journal of Pharmacology 124: 1675-1683 (1998).). The substrate bis-BODIPY®FL C11—PC is incorporated into cellular membranes, the proximity of the BODIPY FL fluorophores on adjacent phospholipid acyl chains causes fluorescence self-quenching. Separation of the fluorophores upon hydrolytic cleavage of one of the acyl chains by PLA(1) or the PLA(2) results in increased fluorescence. In the activated U937 by inflammatory stimulus, it is shown that this substrate should be cleaved enzymatically by IV-cPLA(2) from the feature of its behaviors including sensitivity profiles against the inhibitors.
The human cell line U937 was purchased from Dai-Nippon Pharmaceuticals Co., Ltd. The cells were maintained by transferring every 3-4 days into RPMI 1640 medium (Sigma Chemical Co., R6504) supplemented with heat-inactivated 10% fetal bovine serum (Fetal Bovine Serum, Sigma Chemical Co., F 4135) in a 5% CO2 humidified atmosphere at 37° C. The cells were transferred into the culture medium described above, containing 1.2% (v/v) dimethylsulfoxide (hereinafter referred to as […], Nacalai tesque Co., Ltd., D 134-45), and pre-cultured for 96 to 120 hours so as to differentiate into the macrophage-like cells to be provided for the assay. The macrophage-like cells were collected and washed by centrifugation with the Assay medium (Dulbecco's phosphate buffered saline (hereinafter referred to as PBS)-2.2 mM glucose-2.5 μm albumin). Then, Phorbol 12-Myristate 13-Acetate (hereinafter referred to as TPA, Sigma Chemical Co., P 8139) was added to the Assay medium to be 1×10^−8M as the final concentration. Then, the macrophage-like cells were further cultured for an hour to be activated (Rzigalinski, B. A. & Rosenthal, M. D., Biochimica et Biophysica Acta 1223: 219-225 (1994); and Gonchar, M. V. et al., Biochemical and Biophysical Research Communication, 249: 829-832 (1998).).
For preparing substrate liposome suspension, bis-BODIPY®FL C11—PC was combined with phosphatidylcholine (Sigma Chemical Co., P 7769) at 1:9 molar ratio in chloroform, and dried under nitrogen flow. The dried mixture was suspended with the Assay medium at 100 μg/mL, voltexed and sonicated for an hour on ice under dark condition.
The test compound was dissolved with DMSO at 30 mM, and the solution diluted with either DMSO or the Assay medium before addition into the reaction mixture. The DMSO concentration in the reaction mixture was controlled so as to be no more than 0.1%. The 30-fold concentration of test compound solution was put into each well of MICRPTEST™ Tissue Culture Plate, 96 Well (Falcon, 3072) at a rate of 2.5 μL/well. To the respective well was added 25 μL/well of the activated U937 cell suspension ([…]), and the cells were pre-cultured for 120 min. at 37° C. in a 5% CO2 atmosphere incubator. 47.5 μL/well of the substrate liposome suspension with 1.5×10^−6M A23187 (Sigma Chemical Co., C 7522) was added into each well to prepare 75 μL/well of the total reaction mixture, followed by culture for 30 min. under the same conditions with shielding against light. 100 μL/well of 0.1% GEDTA (Dojindo Laboratories Co. Ltd., 348-01311) methanol solution was added into each well and mixed to stop the reaction. […]

Take `CC(=O)N=C1SC(c2ccccc2)C(C)N1C(=O)NC1CCCCC1` (centres unmarked) [Compound 1-43]: in data set [1] (1.5 mg/25 μL/ear × 2), the “Ear swelling after 24 hours Left (Not applied) (Mean ± S.E., mm)” value is reported as 0.201 ± 0.008 mm and the “Ear swelling after 24 hours Right (Applied) (Mean ± S.E., mm)” value (from here on “Ear swelling after 24 hours Right”) is given as 0.196 ± 0.029 mm.
For `CC1C(c2ccc(Cl)cc2)SC(=O)N1C(=O)NS(=O)(=O)c1ccccc1Cl` (centres unmarked) [Compound 2-36], the “Ear Edema Inhibition (%)” value in data set [2] (0.3 mg/20 μL/ear × 2) amounted to 41%. Also, in data set [3] (0.1 μM), the “Inhibition (%)” value is reported as 61%.
On to `CCOC(=O)C(C)NC(=O)N1C(=O)OC(c2ccc(C)cc2)C1C` (centres unmarked) [Compound 2-54], for which the “Ear Edema Inhibition (%)” value in data set [2] (0.3 mg/20 μL/ear × 2) stood at 64%. The “Inhibition (%)” value in data set [3] (0.1 μM) is given as 95%.
For `CCN(CC)S(=O)(=O)NC(=O)N1C(=O)OC(c2ccc(C)cc2)C1C` (centres unmarked) [Compound 2-55], the “Ear Edema Inhibition (%)” value in data set [2] (1 mg/40 μL/ear × 2) is recorded as 54%. Besides, the “Inhibition (%)” value in data set [3] (0.1 μM) is 94%.
For `Cc1ccc(C2OC(=O)N(C(=O)NS(=O)(=O)c3ccccc3C)C2C)cc1` (centres unmarked) [Compound 2-60] the same measures were 53% and 100%.
In the case of `CC1C(c2ccc3c(c2)CCCC3)OC(=O)N1C(=O)NC1CCCCO1` (centres unmarked) [Compound 2-125], in data set [2] (1 mg/40 μL/ear × 2), the “Ear Edema Inhibition (%)” value worked out at 62%. The “Inhibition (%)” value in data set [3] (0.1 μM) stood at 62%.
Take `CC1C(c2ccc3c(c2)CCC3)OC(=O)N1C(=O)NC1CCCCO1` (centres unmarked) [Compound 2-127]: the “Ear Edema Inhibition (%)” value in data set [2] (1 mg/40 μL/ear × 2) stood at 81%. For the same compound, the “Inhibition (%)” value in data set [3] (0.01 μM) was 54%.
As for `CC1C(c2ccc(Oc3ccccc3)cc2)OC(=O)N1C(=O)NC1CCCO1` (centres unmarked) [Compound 2-128], the “Ear Edema Inhibition (%)” value in data set [2] (1 mg/40 μL/ear × 2) was found to be 49%. Further, the “Inhibition (%)” value in data set [3] (1 μM) worked out at 81%.
In the case of `CC1C(c2ccccn2)OC(=O)N1C(=O)Nc1ccc(Cl)cc1` (centres unmarked) [Compound 2-146], the “Ear Edema Inhibition (%)” value in data set [2] (1 mg/40 μL/ear × 2) is given as 80%. In data set [3] (0.1 μM), the “Inhibition (%)” value is 85%.
Regarding `Cc1ccc(C2OC(=O)N(C(=O)NC3CCCCO3)C2C)cc1C` (centres unmarked) [Compound 2-156], the “Ear Edema Inhibition (%)” value in data set [2] (1 mg/20 μL/ear × 2) came to 48%. In addition, in data set [3] (0.1 μM), the “Inhibition (%)” value came out at 88%.
For `Cc1ccc(C2OC(=O)N(C(=O)NC3CCCCO3)C2C)cc1` (centres unmarked) [Compound 2-170], in data set [2] (0.3 mg/20 μL/ear × 2), the “Ear Edema Inhibition (%)” value was found to be 57%. In addition, the “Inhibition (%)” value in data set [3] (0.1 μM) is recorded as 82%.
Turning to `CC1C(c2ccc(Cl)cc2)SC(=O)N1C(=S)NC1CCCCC1` (centres unmarked) [Compound 2-194], the “Inhibition (%)” value in data set [3] (1 μM) was 78%. For the same compound, in data set [1] (1.5 mg/25 μL/ear × 2), the “Ear swelling after 24 hours Left (Not applied) (Mean ± S.E., mm)” value worked out at 0.226 ± 0.016 mm and the “Ear swelling after 24 hours Right” value is 0.223 ± 0.010 mm.
With `CC1C(c2ccc(C(=O)OC(F)(F)F)cc2)SC(=O)N1C(=O)NC1CCCCO1` (centres unmarked) [Compound 2-240], in data set [1] (1.5 mg/25 μL/ear × 2), the “Ear swelling after 24 hours Left (Not applied) (Mean ± S.E., mm)” value turned out to be 0.238 ± 0.024 mm and the “Ear swelling after 24 hours Right” value was 0.246 ± 0.009 mm.
`C[C@@H]1C[C@H]2[C@@H]3CCC4=CC(=O)C=C[C@]4(C)[C@@]3(F)[C@@H](O)C[C@]2(C)[C@@]1(O)C(=O)CO` [DEX, Dexamethasone, reference compound]: in data set [1] (0.02 mg/ear × 2), the “Change in body weight 48 hours after induction (Mean ± S.E.)” value is -1.42 ± 0.20 g and the “Change in body weight 48 hours after induction (Mean ± S.E.) (%)” value is −4.30 ± 0.59%. For the same compound, in data set [1] (48 hours after the second induction), the “General condition and body weight of mice” value was “generally bad symptoms and reducing their body weight significantly”. Further, in data set [1] (dose 0.02 mg/ear × 2), the “Ear swelling after 24 hours Left (Not applied) (Mean ± S.E., mm)” value is −0.005 ± 0.033 mm and the “Ear swelling after 24 hours Right” value stood at 0.057 ± 0.009 mm.
